# Source: article PMC9054634 (RSC Advances, 2020)
# Biological target: E. coli β-glucuronidase (GUS) (Escherichia coli, UniProt P05804)
# Assay: pNPG hydrolysis by purified GUS, UPLC-UV, Lineweaver-Burk kinetics
# Assay type: biochemical
# Sequence of E. coli β-glucuronidase (GUS) (P05804 whole entry): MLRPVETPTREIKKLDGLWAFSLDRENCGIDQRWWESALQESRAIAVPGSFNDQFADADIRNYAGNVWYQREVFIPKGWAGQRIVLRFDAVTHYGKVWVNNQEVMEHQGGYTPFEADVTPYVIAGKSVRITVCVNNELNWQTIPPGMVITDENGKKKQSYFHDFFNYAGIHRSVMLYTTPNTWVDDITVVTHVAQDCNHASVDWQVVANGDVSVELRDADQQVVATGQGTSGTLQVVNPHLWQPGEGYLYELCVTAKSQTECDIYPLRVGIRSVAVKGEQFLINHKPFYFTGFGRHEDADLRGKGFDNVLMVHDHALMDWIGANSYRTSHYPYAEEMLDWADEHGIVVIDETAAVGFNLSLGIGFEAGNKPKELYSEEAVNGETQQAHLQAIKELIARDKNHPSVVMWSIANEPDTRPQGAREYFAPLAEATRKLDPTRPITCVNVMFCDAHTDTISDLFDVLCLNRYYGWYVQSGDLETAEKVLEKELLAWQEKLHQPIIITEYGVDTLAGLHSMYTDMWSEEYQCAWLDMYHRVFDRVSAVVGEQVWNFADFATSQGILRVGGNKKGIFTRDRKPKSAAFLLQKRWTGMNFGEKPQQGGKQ
row,Ki [µM],Compound
1,31.4,"C[C@]12CC[C@@H]3c4ccc(O)cc4CC[C@H]3[C@@H]1CC[C@@H]2O [E2, Estradiol]"
2,16.6,"C=CCc1ccc(O)c(-c2cc(CC=C)ccc2O)c1 [Mag, Magnolol]"
3,56.9,"CN1CCN(CCCN2c3ccccc3Sc3ccc(C(F)(F)F)cc32)CC1 [TFP, Trifluoperazine]"
